Literature values, collected in publication PMC9963398, “Discovery of New Quinolone-Based Diarylamides as Potent B-RAF^V600E/C-RAF Kinase Inhibitors Endowed with Promising In Vitro Anticancer Activity” (International Journal of Molecular Sciences, 2023).

What was measured:
[1] = system: HL-60(TB); set-up: method as in PMID 32745753; conditions: Leukemia; cited from earlier work
[2] = system: MOLT-4; set-up: method as in PMID 32745753; conditions: MOLT-4, Leukemia; cited from earlier work
[3] = system: SR; set-up: method as in PMID 32745753; conditions: Leukemia; cited from earlier work
[4] = system: A549/ATCC; set-up: method as in PMID 32745753; conditions: NSCL cancer; cited from earlier work
[5] = system: EKVX; set-up: method as in PMID 32745753; conditions: NSCL cancer; cited from earlier work
[6] = system: HOP-62; set-up: method as in PMID 32745753; conditions: HOP-62, NSCL cancer; cited from earlier work
[7] = system: NCI-H226; set-up: method as in PMID 32745753; conditions: NCI-H226, NSCL cancer; cited from earlier work
[8] = system: NCI-H23; set-up: method as in PMID 32745753; conditions: NCI-H23, NSCL cancer; cited from earlier work
[9] = system: NCI-H460; set-up: method as in PMID 32745753; conditions: NCI-H460, NSCL cancer; cited from earlier work
[10] = system: COLO 205; set-up: method as in PMID 32745753; conditions: COLO 205, Colon cancer; cited from earlier work
[11] = system: HT29; set-up: method as in PMID 32745753; conditions: HT29, Colon cancer; cited from earlier work
[12] = system: KM12; set-up: method as in PMID 32745753; conditions: KM12, Colon cancer; cited from earlier work
[13] = system: SW-620; set-up: method as in PMID 32745753; conditions: SW-620, Colon cancer; cited from earlier work
[14] = system: SF-268; set-up: method as in PMID 32745753; conditions: SF-268, CNS cancer; cited from earlier work
[15] = system: SF-295; set-up: method as in PMID 32745753; conditions: SF-295, CNS cancer; cited from earlier work
[16] = system: SF-539; set-up: method as in PMID 32745753; conditions: SF-539, CNS cancer; cited from earlier work
[17] = system: SNB-75; set-up: method as in PMID 32745753; conditions: SNB-75, CNS cancer; cited from earlier work
[18] = system: LOX IMVI; set-up: method as in PMID 32745753; conditions: Melanoma; cited from earlier work
[19] = system: M14; set-up: method as in PMID 32745753; conditions: M14, Melanoma; cited from earlier work
[20] = system: SK-MEL-28; set-up: method as in PMID 32745753; conditions: SK-MEL-28, Melanoma; cited from earlier work
[21] = system: UACC-257; set-up: method as in PMID 32745753; conditions: UACC-257, Melanoma; cited from earlier work
[22] = system: IGROV1; set-up: method as in PMID 32745753; conditions: IGROV1, Ovarian cancer; cited from earlier work
[23] = system: OVCAR-3; set-up: method as in PMID 32745753; conditions: OVCAR-3, Ovarian cancer; cited from earlier work
[24] = system: OVCAR-4; set-up: method as in PMID 32745753; conditions: OVCAR-4, Ovarian cancer; cited from earlier work
[25] = system: OVCAR-5; set-up: method as in PMID 32745753; conditions: OVCAR-5, Ovarian cancer; cited from earlier work
[26] = system: OVCAR-8; set-up: method as in PMID 32745753; conditions: OVCAR-8, Ovarian cancer; cited from earlier work
[27] = system: NCI/ADR-RES; set-up: method as in PMID 32745753; conditions: Ovarian cancer; cited from earlier work
[28] = system: SK-OV-3; set-up: method as in PMID 32745753; conditions: SK-OV-3, Ovarian cancer; cited from earlier work
[29] = system: RXF 393; set-up: method as in PMID 32745753; conditions: RXF 393, Renal cancer; cited from earlier work
[30] = system: SN12C; set-up: method as in PMID 32745753; conditions: Renal cancer; cited from earlier work
[31] = system: TK-10; set-up: method as in PMID 32745753; conditions: TK-10, Renal cancer; cited from earlier work
[32] = system: UO-31; set-up: method as in PMID 32745753; conditions: UO-31, Renal cancer; cited from earlier work
[33] = system: MCF7; set-up: method as in PMID 32745753; conditions: MCF7, Breast cancer; cited from earlier work
[34] = system: BT-549; set-up: method as in PMID 32745753; conditions: BT-549, Breast cancer; cited from earlier work
[35] = system: T-47D; set-up: method as in PMID 32745753; conditions: Breast cancer; cited from earlier work
[36] = system: MDA-MB-231/ATCC; conditions: Breast cancer; cited from earlier work
[37] = system: MDA-MB-468; conditions: MDA-MB-468, Breast cancer; cited from earlier work

## CNC(=O)c1cc(Oc2ccc(NC(=O)Nc3ccc(Cl)c(C(F)(F)F)c3)cc2)ccn1 [Sorafenib]
[1]
  GI50: 1600 nM
[2]
  GI50: 2900 nM
[3]
  GI50: 3100 nM
[4]
  GI50: 2900 nM
[5]
  GI50: 2500 nM
[6]
  GI50: 1900 nM
[7]
  GI50: 1900 nM
[8]
  GI50: 1800 nM
[9]
  GI50: 2300 nM
[10]
  GI50: 2200 nM
[11]
  GI50: 2200 nM
[12]
  GI50: 1600 nM
[13]
  GI50: 2800 nM
[14]
  GI50: 2500 nM
[15]
  GI50: 1600 nM
[16]
  GI50: 1600 nM
[17]
  GI50: 3000 nM
[18]
  GI50: 1600 nM
[19]
  GI50: 2200 nM
[20]
  GI50: 2600 nM
[21]
  GI50: 2200 nM
[22]
  GI50: 2600 nM
[23]
  GI50: 2900 nM
[24]
  GI50: 3500 nM
[25]
  GI50: 2900 nM
[26]
  GI50: 3000 nM
[27]
  GI50: 2500 nM
[28]
  GI50: 2300 nM
[29]
  GI50: 3400 nM
[30]
  GI50: 2400 nM
[31]
  GI50: 4400 nM
[32]
  GI50: 2600 nM
[33]
  GI50: 2800 nM
[34]
  GI50: 3300 nM
[35]
  GI50: 1800 nM
[36]
  GI50: 1300 nM
[37]
  GI50: 2000 nM
